Converted amounts (≈) assume the structure as drawn.
Experiment: in vitro
Conditions: human

Structure (SMILES)	CC50 [µg/mL]	CC50 (Picorana CC50) [µg/mL]
CC(C)c1ccc2c(c1)OC1(O)c3ccccc3C(=O)C21NC(=O)[C@@H](C)NC(=O)OC(C)(C)C (stereo partly drawn) [Example 184, tert-Butyl(2R)-1-(4b-hydroxy-7-isopropyl-10-oxo-9b,10-dihydro-4bH-benzo[d]indeno[1,2-b]furan-9b-ylamino)-1-oxopropan-2-ylcarbamate]	> 10	36.4 (≈ 78 µM)
CCCCC(=O)OC12Oc3cc(C(C)C)ccc3C1(NC(C)=O)C(=O)c1ccccc12 (stereo not drawn) [Example 112, 9b-Acetamido-7-isopropyl-10-oxo-9b,10-dihydro-4bH-indeno[1,2-b]benzofuran-4b-yl pentanoate]		42 (≈ 99.6 µM)
CC(C)c1ccc2c(c1)OC1(O)c3cccc(N)c3C(=O)C21NC(=O)c1ccc(-c2ccccc2)cc1 (stereo not drawn) [Example 172]	> 10	
CC(C)c1ccc2c(c1)OC1(OC(=S)Nc3ccccc3)c3ccccc3C(=O)C21N=[N+]=[N-] (stereo not drawn) [Example 122, Phenyl-thiocarbamic acid O-(9b-azido-7-isopropyl-10-oxo-9b,10-dihydro-5-oxa-indeno[2,1-a]inden-4b-yl) ester]		12 (≈ 26.2 µM)
CC(C)c1ccc2c(c1)OC1(O)c3cccc(N)c3C(=O)C21NC(=O)c1ccc(N)o1 (stereo not drawn) [Example 232, 5-amino-N-(1-amino-4b-hydroxy-7-isopropyl-10-oxo-9b,10-dihydro-4bH-indeno[1,2-b]benzofuran-9b-yl)furane-2-carboxamide]	> 10	> 50
CC(=O)NC12C(=O)c3c(Br)cccc3C1(O)Oc1cc(C(C)C)ccc12 (stereo not drawn) [Example 137, N-(1-Bromo-4b-hydroxy-7-isopropyl-10-oxo-9b,10-dihydro-4bH-indeno[1,2-b]benzofuran-9b-yl)acetamide]		40 (≈ 96 µM)
CC(C)c1ccc2c(c1)OC1(O)c3cccc(N)c3C(=O)C21NC(=O)c1c2ccccc2nc2ccccc12 (stereo not drawn) [Example 241, N-(1-Amino-4b-hydroxy-7-isopropyl-10-oxo-9b,10-dihydro-4bH-benzo[d]indeno[1,2-b]furan-9b-yl)acridine-9-carboxamide]	> 10	7.86 (≈ 15.2 µM)
CCC(=O)N1c2cc(C)c(C)cc2C2(O)C(=O)c3ccccc3C12O (stereo not drawn) [Example 105, 4b,9b-Dihydroxy-7,8-dimethyl-5-propionyl-4b,5-dihydroindeno[1,2-b]indol-10(9bH)-one]		> 50
Cc1onc(-c2c(F)cccc2Cl)c1C(=O)NC12C(=O)c3c(N)cccc3C1(O)Oc1cc(C(C)C)ccc12 (stereo not drawn) [Example 228, N-(1-Amino-4b-hydroxy-7-isopropyl-10-oxo-9b,10-dihydro-4bH-indeno[1,2-b]benzofuran-9b-yl)-3-(2-chloro-6-fluorophenyl)-5-methylisooxazole-4-carboxamide]	> 10	24.1 (≈ 43.9 µM)
CC(C)c1ccc2c(c1)OC1(O)c3ccc([N+](=O)[O-])c(N)c3C(=O)C21O (stereo not drawn) [Example 60, 1-Amino-4b,9b-dihydroxy-7-isopropyl-2-nitro-4bH-indeno[1,2-b]benzofuran-10(9bH)-one]		10.6 (≈ 29.6 µM)
CC(C)c1ccc2c(c1)OC1(O)c3ccccc3C(=O)C21NC(=O)Cc1nnn[nH]1 (stereo not drawn) [Example 220, N-(4b-Hydroxy-7-isopropyl-10-oxo-9b,10-dihydro-4bH-benzo[d]indeno[1,2-b]furan-9b-yl)-2-(1H-tetrazol-5-yl)acetamide]	> 10	> 50
CC(C)C(=O)NC12Oc3cc(C(C)C)ccc3C1(NC(=O)C(C)C)C(=O)c1ccccc12 (stereo not drawn) [Example 125]		45.5 (≈ 105 µM)
CC(C)c1ccc2c(c1)OC1(O)c3ccccc3C(=O)C21NC(=O)c1cccnc1 (stereo not drawn) [Example 230, N-(4b-Hydroxy-7-isopropyl-10-oxo-9b,10-dihydro-4bH-indeno[1,2-b]benzofuran-9b-yl)nicotinamide]	> 10	42.8 (≈ 107 µM)
CCNC(=O)N[C@@]12C(=O)c3ccccc3[C@]1(O)Oc1cc(C(C)C)ccc12 [Example 102, 1-Ethyl-3-((4bS,9bS)-4b-hydroxy-7-isopropyl-10-oxo-9b,10-dihydro-4bH-indeno[1,2-b]benzofuran-9b-yl)urea]		> 50
CC(C)c1ccc2c(c1)OC1(O)c3cccc(N)c3C(=O)C21NC(=O)c1c(Cl)cc(Cl)cc1Cl (stereo not drawn) [Example 192, N-(1-Amino-4b-hydroxy-7-isopropyl-10-oxo-9b,10-dihydro-4bH-indeno[1,2-b]benzofuran-9b-yl)-2,4,6-trichlorobenzamide]	> 10	
CC(C)c1ccc2c(c1)OC1(O)c3cccc(N)c3C(=O)C21NS(=O)(=O)C(F)(F)F (stereo not drawn) [Example 176, N-(1-Amino-4b-hydroxy-7-isopropyl-10-oxo-9b,10-dihydro-4bH-benzo[d]indeno[1,2-b]furan-9b-yl)-1,1,1-trifluoromethanesulfonamide]	> 10	
CC(C)c1ccc2c(c1)OC1(O)c3ccccc3C(=O)C21NC(=O)c1ccccn1 (stereo not drawn) [Example 218, N-(4b-Hydroxy-7-isopropyl-10-oxo-9b,10-dihydro-4bH-indeno[1,2-b]benzofuran-9b-yl)picolinamide]	> 10	8.49 (≈ 21.2 µM)
CO/N=C1/c2ccccc2C2(NOC)Oc3cc(C(C)C)ccc3C12O (stereo not drawn) [Example 128, 9b-Hydroxy-7-isopropyl-4b-(methoxyamino)-4bH-indeno[1,2-b]benzofuran-10(9bH)-one O-methyl oxime]		37.3 (≈ 105 µM)

Structure (SMILES)	CC50 [µg/mL]	CC50 (Picorana CC50) [µg/mL]
CCOP(=O)(NC12C(=O)c3c(N)cccc3C1(O)Oc1cc(C(C)C)ccc12)OCC (stereo not drawn) [Example 169, Diethyl (1-amino-4b-hydroxy-7-isopropyl-10-oxo-9b,10-dihydro-4bH-indeno[1,2-b]benzofuran-9b-yl)phosphoamidate]	> 10	
Cc1onc(-c2c(Cl)cccc2Cl)c1C(=O)NC12C(=O)c3ccccc3C1(O)Oc1cc(C(C)C)ccc12 (stereo not drawn) [Example 236, 3-(2,6-dichlorophenyl)-N-(4b-hydroxy-7-isopropyl-10-oxo-9b,10-dihydro-4bH-benzo[d]indeno[1,2-b]furan-9b-yl)-5-methylisooxazole-4-carboxamide]	> 10	21.4 (≈ 38.9 µM)
COc1ccc(CN2CCN(c3ccc4c(c3)C(=O)C3(O)c5ccc(C(C)C)cc5OC43O)CC2)cc1 (stereo not drawn) [Example 148, 4b,9b-Dihydroxy-7-isopropyl-2-(4-(4-methoxybenzyl)piperazin-1-yl)-4bH-benzo[d]indeno[1,2-b]furan-10(9bH)-one]		1.72 (≈ 3.44 µM)
CC(C)c1ccc2c(c1)OC1(O)c3ccccc3/C(=N\N)C21O (stereo not drawn) [Example 152, 10-Hydrazono-7-isopropyl-9b,10-dihydro-4bH-benzo[d]indeno[1,2-b]furan-4b,9b-diol]	10.5 (≈ 33.9 µM)	0.9 (≈ 2.9 µM)
CC(C)c1ccc2c(c1)OC1(O)c3cccc(N)c3C(=O)C21NC(=O)c1cnccc1Cl (stereo not drawn) [Example 254, N-(1-Amino-4b-hydroxy-7-isopropyl-10-oxo-9b,10-dihydro-4bH-indeno[1,2-b]benzofuran-9b-yl)-4-chloronicotinamide]	> 10	
CC(C)c1ccc2c(c1)OC1(O)c3cccc(N)c3C(=O)C21NC(=O)NC(C)(C)C (stereo not drawn) [Example 165]	> 10	
COc1ccc(CN2CCN(c3cccc4c3C(=O)C3(O)c5ccc(C(C)C)cc5OC43O)CC2)cc1 (stereo not drawn) [Example 149, 4b,9b-Dihydroxy-7-isopropyl-1-(4-(4-methoxybenzyl)piperazin-1-yl)-4bH-benzo[d]indeno[1,2-b]furan-10(9bH)-one]		8.48 (≈ 16.9 µM)
CC(C)c1ccc2c(c1)OC1(O)c3ccccc3C(=O)C21NC(=O)c1ccc(=O)oc1 (stereo not drawn) [Example 226, N-(4b-Hydroxy-7-isopropyl-10-oxo-9b,10-dihydro-4bH-benzo[d]indeno[1,2-b]furan-9b-yl)-2-oxo-2H-pyrane-5-carboxamide]	> 10	28.2 (≈ 67.5 µM)
CC(=O)Nc1ccc([N+](=O)[O-])c2c1C(=O)C1(NC(C)=O)c3ccc(C(C)C)cc3OC21OC(C)=O (stereo not drawn) [Example 110, Acetic acid 1,9b-bis-acetylamino-7-isopropyl-4-nitro-10-oxo-9b,10-dihydro-5-oxa-indeno[2,1-a]inden-4b-yl ester]		14.4 (≈ 29.9 µM)
CCCCCCC(=O)NC12C(=O)c3c(N)cccc3C1(OC(=O)CCCCCC)Oc1cc(C(C)C)ccc12 (stereo not drawn) [Example 99, 1-Amino-9b-heptanamido-7-isopropyl-10-oxo-9b,10-dihydro-4bH-benzo[d]indeno[1,2-b]furan-4b-yl heptanoate]	7.7 (≈ 14.4 µM)	> 50
CC(=O)N1c2cc(C)c(C)cc2C2(O)C(=O)c3ccccc3C12O (stereo not drawn) [Example 104, 5-Acetyl-4b,9b-dihydroxy-7,8-dimethyl-4b,5-dihydroindeno[1,2-b]indol-10(9bH)-one]		> 50
CCC(=O)N[C@@]12C(=O)c3c(N)cccc3[C@]1(OC(=O)CC)Oc1cc(C(C)C)ccc12 [Example 94, (4bR,9bS)-1-Amino-7-isopropyl-10-oxo-9b-propionamido-9b,10-dihydro-4bH-indeno[1,2-b]benzofuran-4b-yl propionate]	58.1 (≈ 137 µM)	42.4 (≈ 100 µM)
CC(C)c1ccc2c(c1)OC1(O)c3ccc(N4CCCCC4)cc3C(=O)C21O (stereo not drawn) [Example 139, 4b,9b-Dihydroxy-7-isopropyl-2-piperidinyl-4bH-benzo[d]indeno[1,2-b]furan-10(9bH)-one]		0.45 (≈ 1.19 µM)
CC(C)c1ccc2c(c1)OC1(O)c3cccc(N)c3C(=O)C21NC(=O)c1sc2cc(F)ccc2c1Cl (stereo not drawn) [Example 269, N-(1-Amino-4b-hydroxy-7-isopropyl-10-oxo-9b,10-dihydro-4bH-indeno[1,2-b]benzofuran-9b-yl)-3-chloro-6-fluorobenzo[b]thiophene-2-carboxamide]	> 10	
CC(C)c1ccc2c(c1)OC1(O)c3cccc(N)c3C(=O)C21NC(=O)c1cccc2cccnc12 (stereo not drawn) [Example 202, N-(1-Amino-4b-hydroxy-7-isopropyl-10-oxo-9b,10-dihydro-4bH-indeno[1,2-b]benzofuran-9b-yl)quinoline-8-carboxamide]	3.24 (≈ 6.96 µM)	9.6 (≈ 20.6 µM)
CC(C)c1ccc2c(c1)OC1(O)c3cccc(N)c3C(=O)C21NC(=O)c1sc2ccccc2c1Br (stereo not drawn) [Example 264]	> 10	
CONC(=O)N[C@@]12C(=O)c3ccccc3[C@]1(O)Oc1cc(C(C)C)ccc12 [Example 103, 1-((4bS,9bS)-4b-Hydroxy-7-isopropyl-10-oxo-9b,10-dihydro-4bH-indeno[1,2-b]benzofuran-9b-yl)-3-methoxyurea]		> 50
